Experimental data taken from patent publication US20210186905A1, “ENHANCING T-CELL FUNCTION AND TREATING A T-CELL DYSFUNCTIONAL DISORDER WITH A COMBINATION OF AN LSD INHIBITOR AND A PD-1 BINDING ANTAGONIST” (EpiAxis Therapeutic Pty Ltd, priority 2017, published 2021).
Counter-ions that a name gives are not always drawn.

Legend:
CD133, ALDH1A and ABCB5 = test: Immunofluorescence of cancer cells from primary tumor micro-environment, chemo-resistant stem-like signature panel; format: in vivo, mouse; settings: cancer cells from primary TME; % change relative to vehicle control
Experimental: FIG. 2 is a graphical and photographic representation showing the efficacy of dual phenelzine sulfate (phenelzine) and anti-PD1 antibody (PD1) therapy on circulating tumor cells (CTCs) and cancer stem cells (CSC) as well as tumor burden. A. Statistics of tumor volumes on day 15 post-treatment. A Mann-Whitney non-parametric t-test was used to compare control vs other groups (*p<0.02, **p<0.008). Group A=Control, Group C: PD1 (10 mg/kg), Group D: Phenelzine (40 mg/kg), Group F: PD1+Phenelzine. Illustration of the treatment protocol is also shown. […] Representative images for each dataset are shown. […] C. […] (a) Representative images for each dataset are shown. (b) Graph represents the TCFI values for CD133 TNFI for ALDH1A and TFI for ABCB5 measured using ImageJ to select the nucleus/cytoplasm minus background (n>20 individual cells, Group A=Control, Group C: PD1 (10 mg/kg), Group D: Phenelzine (40 mg/kg), Group F: PD1+Phenelzine).
FIG. 11 is a photographic and graphical representation showing triple therapy efficacy on CTC/CSC and tumor burden. A. Statistics of tumor volumes on day 15 post-treatment. […] (b) Graph represents the TCFI values for CD133 TNFI for ALDH1A and TFI for ABCB5 measured using ImageJ to select the nucleus/cytoplasm minus background (n>20 individual cells, Group A=Control, Group B: Abraxane (30 mg/kg), Group C: anti-PD1 (10 mg/kg), Group D: Phenelzine (40 mg/kg), Group E: Abraxane+PD1, Group F: PD1+Phenelzine, Group G: Abraxane+Phenelzine, Group H: Triple Therapy).
Next, the cancer cells were assessed for expression of a chemo-resistant, stem-like biomarker signature biomarker panel (CD133, ALDH1A and ABCB5).
A total of 2×10^5 cells were injected per mouse into mammary gland in 50 μL of phosphate buffered saline (PBS). […] Tumors were measured using calipers and the tumor volumes (mm3) were calculated using the formula (length×width2)/2. ? arvested cells from primary tumors where then cytospun ? -treated with poly-1-lysine and fixed then stored in PBS for IFA Microscopy Analysis. […]

CD4+/CD8+ T-cells = test: Flow cytometry of T-cell populations (naive, effector and central memory) in 4T1 mice; format: in vivo, mouse
Experimental: FIG. 5 is a graphical representation showing that dual epigenetic-immunotherapy re-educates and re-programs the T-cell repertoire. A. Cells stimulated with PMA/ionomycin for 4 hours in the presence of Brefeldin A. Cells were surfaced stained with CD45, CD3, CD4, CD8, CD44, CD62L (for naïve, effector and central memory), CD25 and FoxP3 (for Tregs) and analyzed via Flow cytometry. A Mann-Whitney non-parametric t-test was used to compare control vs other groups (*p<0.05, n=2-5). […] Representative images for each dataset are shown. TNFI values for EOMES, TBET and Ki67 measured using Image) to select the nucleus minus background. Graphs represent the % change of expression relative to control group for CD8^+ T-cells. (n>20 individual cells, Group A=Control, Group C: PD1 (10 mg/kg), Group D: Phenelzine (40 mg/kg), Group F: PD1+Phenelzine). C. Cells stimulated with PMA/ionomycin for 4 hours in the presence of Brefeldin A. Cell were surfaced stained with CD45, CD3, CD4, CD8 and intracellular staining of IFN-γ, IL-2 and TNF-α in the presence of Brefeldin A and analyzed via flow cytometry. A Mann-Whitney non-parametric t-test was used to compare control vs other groups (*p<0.05, **p<0.008; n=2-5). […] Representative images for each dataset are shown. TNFI values for TNFα and IFNγ measured using ImageJ to select the nucleus minus background. […]

NNCCc1ccccc1 (racemic) [phenelzine sulfate, (±)-2-phenylethylhydrazine]
expression of ABCB5 (CD133, ALDH1A and ABCB5): strongly inhibited
expression of ALDH1A (CD133, ALDH1A and ABCB5): did not significantly affect
expression of CD133 (CD133, ALDH1A and ABCB5): did not significantly affect
CD8+ central memory and effector memory populations (CD4+/CD8+ T-cells): enhance
